Patent publication US4401827A, “Novel acyl-derivatives of carnitine and process for their preparation” (Sigma-Tau, priority 1978, dated 1983)
Where two headings read alike, the source gives them in different places.

Experiments:
rabbit hearts = assay: cardiokinetic effect on isolated rabbit heart (Langendorff) after anoxia; conditions: equal concentrations in perfusion fluid, Student's t test versus controls
Method: The cardiokinetic effect on isolated heart was also investigated as follows. Rabbit hearts isolated by the Langendorff method were perfused with oxygenized ringer solution at 38.2° C. The isometric contractions, electrocardiogram and coronary flow were recorded using a "Battaglia-Rangoni" polygraph. By removing the oxygen from the perfusion fluid, metabolic damage was induced in the cardiac muscle, up to an 80% reduction in the cardiac contractile force.
Under these conditions of prolonged anoxia the aerobic glycolysis of the myocardium is slowed down, accompanied by the storage of acid catabolites due to both the accumulation of pyruvic acid and its conversion to lactic acid which cannot be utilized because of the depression of pyridine enzymes, such as LDH (lactodehydrogenase). This has repercussions on the anaerobic glycolysis affecting an ever increasing number of enzymes, accompanied by a progressive and increasingly critical exhaustion of the myocardium. Thus a whole series of cardiac muscle fatigue levels occurs which can be observed by the behavior of the examined parameters, namely the contractile force, coronary flow, heart rate and cardiac rhythm. As soon as the contractile force was reduced by 80%, the perfusion fluid was once again oxygenized either without adding other compounds (controls) or with the addition of the compounds under examination.
Table 2 below gives the percentage values of the contractile force of the heart, showing a positive inotropic effect, calculated after 10 minutes from the interruption of the anoxic period (myocardial restoration).
of some acyl derivatives of formula (I) on the contractile
force of rabbit's heart. (Details are given in the text)

[1] = acute toxicity (tolerance) i.p. in mice, Weil method; conditions: mouse, in vivo, ip, Weil method (N = 5, K = 4)
Excerpt: The tolerance of the Acyl-carnitines of the formula (I), as well as their salts administered by intraperitoneal route was investigated in mice using the Weil Method (1).
LD50, mg kg^-1 i.p. in mice,
of some acyl derivatives of formula (1).
Weil method (N = 5, K = 4)

rat's ventricle strip = assay: antiarrhythmic effect, isolated rat ventricle strip test; conditions: for inhibition at 1 µM / activation at 1 µM: Rattus norvegicus, concentration 1·10^-6 M; for inhibition at 1 µM: decrease; for activation at 1 µM: increase; for antiarrhythmic properties (in words): isolated rat ventricle method
Excerpt: (2) M. Libonati and G. Segre, Archivio Italiano di Scienze Farmacologiche. Serie XIII, Vol. X, pag. 3, (1960)
effect of some acyl derivatives (concentration 1 · 10^-6
of the formula (1) on the rat's ventricle strip test.
% variation versus basal value.

[2] = tested on: arrhythmia induced by Aconitine in mice; assay: arrhythmia induced by Aconitine in mice; format: in vivo; conditions: for change in vivo at 150 mg/kg / change in vivo at 40 mg/kg: Mus musculus, iv; for antiarrhythmic activity (in words): Aconitine, mice
Method: The antiarrhythmic effect of the compounds was also investigated in mice according to the P. W. Nwangwu, T. Holcslow procedure (4). Using Aconitine (5 mg/ml) as arrhythmogenic agent, the changes in the cardiac rhythm of the animals were recorded and the onset time of initial arrhythmia and/or of ventricular tachycardia were used as End point.
Antiarrhythmic agents display an increase in the latency time of initial ECG change.
(4) P. W. Nvangvu, T. L. Holcslow, Arch. Int. Pharmacodyn. 229, 219 (1977)
on the arrhythmia induced by Aconitine (5 γ/ml) in mice.
% increase of the time to onset of initial cardiac arrythmia

F.F.A. plasma levels = assay: plasma free fatty acids in 17-hrs fasted rats; format: in vivo; conditions: single i.p. 500 mg kg^-1, 17-hrs fasted rats
Method: In 17-hrs fasted rats the F.F.A. (fatty-free acids) splasms levels were reduced by a single i.p. administration with 500 mg kg^-s of d,l dipropyl ACAR; l dipropyl ACAR (ACAR=acetylcarnitine); d,l exanoyl CAR (CAR=carnitine) and d,l pyruvyl CAR.
The decrease, compared with untreated animals, was -35%, -29%, -41% and -65% respectively.

[3] = tested on: plasma cholesterol, triglycerides and lipoproteins in rat; assay: plasma cholesterol, triglycerides and lipoproteins in rat treated with olive oil; format: in vivo; conditions: for Lipoproteins, VLDL / Lipoproteins, HDL / Lipoproteins, LDL / cholesterol / triglycerides: olive oil 15 ml kg^-1 orally, compound ip, mean ± SEM, N = 8; for Lipoproteins, VLDL: oil control 15.84 ± 1.53; for Lipoproteins, HDL: oil control 24.18 ± 2.15; for Lipoproteins, LDL: oil control 57.38 ± 2.25; for cholesterol: oil control 88.33 ± 2.96; for triglycerides: oil control 213.66 ± 28.68
Method: In the rats the lipoproteic pattern altered due to an oil administration by gavage, was restored after a single treatment with d,l dipropyl ACAR; d,l ethyl exanoyl CAR; d,l 3 bromopropionyl CAR and d,l pyruvyl CAR.
The effect of some acyl derivatives of formula (I) on plasma cholesterol,
triglycerides and lipoproteins in rat
treated with olive oil, 15 ml kg^-1 orally. Mean Values ± SEM
Student "t" test .quadrature., Δ and indicate respectively a non
significant difference, a P ≤ 1% and 1%.

[4] = read-out: maximed frequency (- %), % variation versus basal value
[5] = read-out: whole excitability (- %), % variation versus basal value
[6] = read-out: refractory period (+ %), % variation versus basal value
[7] = read-out: rheobase (+ %), % variation versus basal value
[8] = read-out: latency time increase % of controls, arrhythmias
[9] = read-out: latency time increase % of controls, tachycardia

Question: Which “positive inotropic effect (in words)” value (rabbit hearts) does the source give for C[N+](C)(C)CC(CC(=O)[O-])OC(=O)C=Cc1ccccc1 (racemic) [d,l cinnamoyl CAR] here?
Answer: The value was “greater positive inotropic effect than that of the other compounds under examination”.

Question: And the LD50 [1]?
Answer: The LD50 was 1120 mg/kg.

Question: And the inhibition at 1 µM (rat's ventricle strip; [4])?
Answer: Its inhibition at 1 µM is 29.8%.

Question: And the inhibition at 1 µM (rat's ventricle strip; [5])?
Answer: Its inhibition at 1 µM is 75.3%.

Question: What about the activation at 1 µM (rat's ventricle strip; [6]) of the same molecule?
Answer: Its activation at 1 µM is 40.1%.

Question: What about the activation at 1 µM (rat's ventricle strip; [7]) of the same molecule?
Answer: Its activation at 1 µM is 49.6%.

Question: What about the change in vivo at 150 mg/kg [2, 8] of the same molecule?
Answer: Its change in vivo at 150 mg/kg is 20%.

Question: What about the change in vivo at 150 mg/kg [2, 9] of the same molecule?
Answer: Its change in vivo at 150 mg/kg is 8%.

Question: What does the source list for CCCC(CCC)C(=O)OC(CC(=O)[O-])C[N+](C)(C)C (racemic) [d,l dipropyl ACAR]?
Answer: LD50 [1]: 1700 mg/kg; inhibition at 1 µM (rat's ventricle strip; [4]): 23.2%; inhibition at 1 µM (rat's ventricle strip; [5]): 50.6%; activation at 1 µM (rat's ventricle strip; [6]): 34.3%; activation at 1 µM (rat's ventricle strip; [7]): 24.2%; decrease of F.F.A. plasma levels compared with untreated animals (F.F.A. plasma levels): -35%; Lipoproteins, VLDL [3]: 13.26 ± 2.03%; Lipoproteins, HDL [3]: 28.13 ± 3.27%; Lipoproteins, LDL [3]: 50.12 ± 2.08%; cholesterol [3]: 75.15 ± 3.11 mg/100 ml; triglycerides [3]: 121.50 ± 11.13 mg/100 ml; lipoproteic pattern altered due to oil administration (in words) ([3]; rats, single treatment): restored; change in vivo at 150 mg/kg [2, 8]: 65%; change in vivo at 150 mg/kg [2, 9]: 55%

Question: For CC(=O)C(=O)OC(CC(=O)[O-])C[N+](C)(C)C (racemic) [d,l pyruvyl CAR], which “positive inotropic effect (in words)” value (rabbit hearts) is on record?
Answer: The value was “greater positive inotropic effect than that of the other compounds under examination”.

Question: What about the LD50 [1] of the same molecule?
Answer: The LD50 was 3900 mg/kg.

Question: And the inhibition at 1 µM (rat's ventricle strip; [4])?
Answer: Its inhibition at 1 µM is 80.2%.

Question: And the inhibition at 1 µM (rat's ventricle strip; [5])?
Answer: Its inhibition at 1 µM is 95.5%.

Question: What about the activation at 1 µM (rat's ventricle strip; [6]) of the same molecule?
Answer: Its activation at 1 µM is 50.2%.

Question: What about the activation at 1 µM (rat's ventricle strip; [7]) of the same molecule?
Answer: The activation at 1 µM was 48.2%.

Question: And the “antiarrhythmic properties (in words)” value (rat's ventricle strip)?
Answer: Its value is “most clear out antiarrhythmic properties”.

Question: What about the “decrease of F.F.A. plasma levels compared with untreated animals” value (shortened to “decrease of F.F.A. plasma levels”) (F.F.A. plasma levels) of the same molecule?
Answer: Its value is -65%.

Question: And the “Lipoproteins, VLDL” value [3]?
Answer: Its value is 10.15 ± 1.03%.

Question: What about the “Lipoproteins, HDL” value [3] of the same molecule?
Answer: Its value is 33.26 ± 2.17%.

Question: And the “Lipoproteins, LDL” value [3]?
Answer: The value was 50.15 ± 2.33%.

Question: And the cholesterol [3]?
Answer: Its cholesterol is 70.26 ± 2.74 mg/100 ml.

Question: What about the triglycerides [3] of the same molecule?
Answer: The triglycerides was 85.14 ± 7.22 mg/100 ml.

Question: And the “increase of HDL and decrease of LDL and VLDL (in words)” value ([3]; rats, single treatment)?
Answer: The value was “most marked effect”.

Question: What about the “lipoproteic pattern altered due to oil administration (in words)” value ([3]; rats, single treatment) of the same molecule?
Answer: The value was “restored”.

Question: What about the “triglycerides and cholesterol plasma levels increased after oil (in words)” value ([3]; rats, single treatment) of the same molecule?
Answer: Its value is “active against the triglycerides and cholesterol plasma levels”.

Question: What about the “antiarrhythmic activity (in words)” value [2] of the same molecule?
Answer: The value was “markedly exhibited”.

Question: And the change in vivo at 40 mg/kg [2, 8]?
Answer: Its change in vivo at 40 mg/kg is 80%.

Question: And the change in vivo at 40 mg/kg [2, 9]?
Answer: The change in vivo at 40 mg/kg was 60%.

Question: For CCCCCC(=O)OC(CC(=O)[O-])C[N+](C)(C)C (stereo not shown) [d,l exanoyl CAR], which “decrease of F.F.A. plasma levels” value (F.F.A. plasma levels) is on record?
Answer: Its value is -41%.

Question: With CCCC(CCC)C(=O)OC(CC(=O)[O-])C[N+](C)(C)C (stereo not shown) [dipropyl acetyl] as the molecule, how does the “positive inotropic effect (in words)” value (rabbit hearts) read?
Answer: Its value is “greater positive inotropic effect than that of the other compounds under examination”.

Question: What about the “antiarrhythmic properties (in words)” value (rat's ventricle strip) of the same molecule?
Answer: Its value is “most clear out antiarrhythmic properties”.

Question: What about the “antiarrhythmic activity (in words)” value [2] of the same molecule?
Answer: Its value is “markedly exhibited”.

Question: For CCCC(CCC)C(=O)O[C@H](CC(=O)[O-])C[N+](C)(C)C [l dipropyl ACAR], which LD50 [1] is on record?
Answer: The LD50 was 294 mg/kg.

Question: What about the inhibition at 1 µM (rat's ventricle strip; [4]) of the same molecule?
Answer: The inhibition at 1 µM was 25.3%.

Question: And the inhibition at 1 µM (rat's ventricle strip; [5])?
Answer: The inhibition at 1 µM was 58.2%.

Question: And the activation at 1 µM (rat's ventricle strip; [6])?
Answer: The activation at 1 µM was 39.1%.

Question: What about the activation at 1 µM (rat's ventricle strip; [7]) of the same molecule?
Answer: Its activation at 1 µM is 55.1%.

Question: And the “decrease of F.F.A. plasma levels” value (F.F.A. plasma levels)?
Answer: Its value is -29%.

Question: What about the change in vivo at 40 mg/kg [2, 8] of the same molecule?
Answer: The change in vivo at 40 mg/kg was 60%.

Question: And the change in vivo at 40 mg/kg [2, 9]?
Answer: Its change in vivo at 40 mg/kg is 40%.

Question: Which results are given for CC(C)(C)C(=O)OC(CC(=O)[O-])C[N+](C)(C)C (stereo not shown) [pivaloyl]?
Answer: positive inotropic effect (in words) (rabbit hearts): greater positive inotropic effect than that of the other compounds under examination; antiarrhythmic properties (in words) (rat's ventricle strip): most clear out antiarrhythmic properties
